# According to patent publication US9107865B2, “Methods for producing oocysts” (Zoetis Services LLC, priority 2001, dated 2015):
# Read-outs that look alike come from different tables or passages of the source.
# What was measured:
# [1] = test system: extraneous viable bacteria and fungi; experiment: 9CFR 113.27 purity test after sanitization of oocysts; conditions: sanitized E. maxima oocysts
# Description: (§1) An experiment was performed to investigate the utility of the sporulation medium described in Example 3 as a sanitization reagent. E. maxima oocysts were produced in broilers and purified using a density flotation technique. Oocysts were sporulated for 72 h using 10% citric acid, 0.25% propionic acid, 0.75% hydrogen peroxide, and 1 mL/L Antifoam A. After sporulation, the oocysts were centrifuged and resuspended in sterile-filtered sporulation medium (10% citric acid, 0.25% propionic acid, 0.75% hydrogen peroxide, 1 mL/L Antifoam A) and incubated overnight at room temperature with stirring. After sanitization, buffer exchange was accomplished via diafiltration using 200 mM potassium phosphate, pH 7, followed by PBS without preservatives. The bulk sample was stored in glass bottles approximately one-third full at 4° C. Subsamples of the final product were sent to a commercial testing laboratory for purity tests according to U.S. Department of Agriculture (USDA) guidelines.
# (§2) Two experimental batches of E. maxima oocysts were prepared (Run A and Run B). Each batch was purified using sieving and flotation procedures. Each batch was then split and two methods of sanitization were tested (sodium hypochlorite and hydrogen peroxide with citric acid and propionic acid). Samples from each test were subjected to several purity tests including 9CFR tests and two PCR methods for virus detection.
# mycoplasma = experiment: 9CFR 113.28 purity test after sanitization of oocysts; conditions: sanitized E. maxima oocysts
# Description: as §1, §2
# salmonella = experiment: 9CFR 113.30 purity test after sanitization of oocysts; conditions: sanitized E. maxima oocysts
# Description: as §1, §2
# avian lymphoid leukosis = conditions: sanitized E. maxima oocysts
# Description: E. maxima oocysts were produced in broilers and purified using a density flotation technique. […] After sanitization, buffer exchange was accomplished via diafiltration using 200 mM potassium phosphate, pH 7, followed by PBS without preservatives. The bulk sample was stored in glass bottles approximately one-third full at 4° C. Subsamples of the final product were sent to a commercial testing laboratory for purity tests according to U.S. Department of Agriculture (USDA) guidelines.
# hemagglutinating virus = experiment: 9CFR 113.34 purity test after sanitization of oocysts; conditions: sanitized E. maxima oocysts
# Description: as §1, §2
# [2] = test system: Extraneous agents in master seed; experiment: 9CFR 113.55 purity test after sanitization of oocysts; conditions: sanitized E. maxima oocysts
# Description: as §2
# [3] = test system: Chicken Infectious Anemia Virus; experiment: PCR virus detection after sanitization of oocysts; conditions: sanitized E. maxima oocysts
# Description: as §2
# [4] = test system: Reticuloendothelial Virus; experiment: PCR virus detection after sanitization of oocysts; conditions: sanitized E. maxima oocysts
# Description: as §2
# Scopulariopsis brumptii = experiment: Fungistatic or fungicidal properties of reagents (TSB flasks, then MEA plates); format: cell-based; conditions: for Growth on MEA plates (Day 14): 1 mL of flask plated on day 28 onto MEA plate, 14 days; for Growth on MEA plates (Day 14) / Growth in TSB Flasks (Day 28): room temperature; for Growth in TSB Flasks (Day 28): TSB flasks inoculated with fungal stock, 28 days; for fungistatic / fungicidal assessment: flask and plate tests taken together; for Growth in TSB Flasks (Day 28): key: −: no growth was observed; +: growth was observed; for Growth on MEA plates (Day 14): key: −: no growth was observed; +: growth was observed
# Description: An experiment was conducted to assess the fungistatic or fungicidal properties of the reagents used in the collection and sporulation medium described in Example 3. Initial sterility tests were performed using trypticase soy broth (TSB). A fungal stock was created by suspending fungal scrapings from a Scopulariopsis brumptii stock culture into 25 mL PBS and filtering this material through a coarse Swinney filter (˜100 μm). Two hundred […] of this fungal stock was inoculated into three TSB flasks for treatments (Trt) 2-11.
# Treatments evaluated various of the components of the collection/sporulation/sanitization medium described in Example 3, either alone or in combination. Sodium propionate was also tested in addition to propionic acid. Treatments were evaluated at room temperature for 28 days; then, on day 28 of incubation, one mL of each replicate flask for all treatments was plated onto a malt extract agar (MEA) plate with chloramphenicol (50 μg/mL) and penicillin-G (100 U/mL) and incubated at room temperature for 14 days.
smiles,measurement,setting,value
"[Na+].[O-]Cl [Hypochlorite, sodium hypochlorite]",9CFR 113.27 Detection of extraneous viable bacteria and fungi in live vaccine,"[1]; Example 6, Run A",Negative
same,9CFR 113.27 Detection of extraneous viable bacteria and fungi in live vaccine,"[1]; Example 6, Run B",Negative
same,9CFR 113.28 Detection of mycoplasma,"mycoplasma; Example 6, Run A",Negative
same,9CFR 113.28 Detection of mycoplasma,"mycoplasma; Example 6, Run B",Negative
same,9CFR 113.30 Detection of salmonella,"salmonella; Example 6, Run A",Negative
same,9CFR 113.30 Detection of salmonella,"salmonella; Example 6, Run B",Negative
same,9CFR 113.31 Detection of avian lymphoid leucosis,"avian lymphoid leukosis; Example 6, Run A",Negative
same,9CFR 113.31 Detection of avian lymphoid leucosis,"avian lymphoid leukosis; Example 6, Run B",Negative
same,9CFR 113.34 Detection of hemagglutinating virus,"hemagglutinating virus; Example 6, Run A",Negative
same,9CFR 113.34 Detection of hemagglutinating virus,"hemagglutinating virus; Example 6, Run B",Negative
same,9CFR 113.55 Extraneous agents in master seed,"[2]; Example 6, Run A",Negative
same,9CFR 113.55 Extraneous agents in master seed,"[2]; Example 6, Run B",Negative
same,Chicken Infectious Anemia Virus by PCR,"[3]; Example 6, Run A",Negative
same,Chicken Infectious Anemia Virus by PCR,"[3]; Example 6, Run B",Negative
same,Reticuloendothelial Virus by PCR,"[4]; Example 6, Run A",Negative
same,Reticuloendothelial Virus by PCR,"[4]; Example 6, Run B",Negative
"OO [Trt 3, hydrogen peroxide]",Growth on MEA plates (Day 14),Scopulariopsis brumptii,−
same,Growth in TSB Flasks (Day 28),Scopulariopsis brumptii,−
"CCC(=O)O [Trt 4, propionic acid]",Growth on MEA plates (Day 14),Scopulariopsis brumptii,+
same,Growth in TSB Flasks (Day 28),Scopulariopsis brumptii,−
same,fungistatic / fungicidal assessment,Scopulariopsis brumptii,fungistatic
"O=C(O)CC(O)(CC(=O)O)C(=O)O [Trt 5, citric acid]",Growth on MEA plates (Day 14),Scopulariopsis brumptii,−
same,Growth in TSB Flasks (Day 28),Scopulariopsis brumptii,−
"CCC(=O)[O-].[Na+] [Trt 10, sodium propionate]",Growth on MEA plates (Day 14),Scopulariopsis brumptii,+
same,Growth in TSB Flasks (Day 28),Scopulariopsis brumptii,+
CCC(=O)[O-].[Na+] [sodium propionate],fungistatic / fungicidal assessment,Scopulariopsis brumptii,did not inhibit fungal growth
